According to ChEMBL document CHEMBL1764998, “Structures, synthesis, and human Nod1 stimulation of immunostimulatory bacterial peptidoglycan fragments in the environment” (J Nat Prod, 2011):
The source made the active and inactive calls. The calls are words filed in the database; no cut-off is given here.

Columns and labels:
Format in all cases: cell-based
Details in all cases: HEK-293T
[1] = biological target: T1, Nucleotide-binding oligomerization domain-containing protein 1 (Homo sapiens) (UniProt Q9Y239); experiment: Induction of human NOD1 activity expressed in HEK293T cells assessed as NFKB activation at 1 to 100 ng/ml by luciferase reporter assay
T1 sequence (whole entry): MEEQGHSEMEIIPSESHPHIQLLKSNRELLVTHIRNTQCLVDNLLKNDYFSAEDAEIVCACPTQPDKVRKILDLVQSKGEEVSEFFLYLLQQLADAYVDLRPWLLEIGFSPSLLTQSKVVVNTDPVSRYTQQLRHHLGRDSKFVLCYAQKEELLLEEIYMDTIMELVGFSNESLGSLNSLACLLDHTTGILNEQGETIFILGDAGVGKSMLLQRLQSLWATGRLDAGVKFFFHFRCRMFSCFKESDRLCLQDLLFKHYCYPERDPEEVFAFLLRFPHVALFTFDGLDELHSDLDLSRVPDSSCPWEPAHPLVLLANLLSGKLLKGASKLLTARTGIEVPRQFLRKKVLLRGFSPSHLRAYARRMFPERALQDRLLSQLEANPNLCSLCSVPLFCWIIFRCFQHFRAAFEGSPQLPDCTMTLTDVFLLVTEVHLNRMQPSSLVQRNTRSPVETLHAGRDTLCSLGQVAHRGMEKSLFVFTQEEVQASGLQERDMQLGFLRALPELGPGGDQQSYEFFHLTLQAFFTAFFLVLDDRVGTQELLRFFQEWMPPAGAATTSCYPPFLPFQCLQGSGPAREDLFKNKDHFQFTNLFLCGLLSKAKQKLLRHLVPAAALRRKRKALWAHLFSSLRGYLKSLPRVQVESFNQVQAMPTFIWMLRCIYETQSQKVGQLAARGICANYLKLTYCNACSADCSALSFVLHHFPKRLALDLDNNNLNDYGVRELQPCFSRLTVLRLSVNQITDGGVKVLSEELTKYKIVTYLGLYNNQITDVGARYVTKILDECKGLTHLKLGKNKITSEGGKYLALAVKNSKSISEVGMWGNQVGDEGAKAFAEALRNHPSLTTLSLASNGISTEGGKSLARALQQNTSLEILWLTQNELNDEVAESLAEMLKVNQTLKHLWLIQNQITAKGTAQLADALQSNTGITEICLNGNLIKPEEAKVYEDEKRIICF

[2] = biological target: T1, Nucleotide-binding oligomerization domain-containing protein 1 (Homo sapiens); experiment: Induction of human NOD1 activity expressed in HEK293T cells assessed as NFKB activation at 0.1 to 1000 ng/ml by luciferase reporter assay
[3] = biological target: T1, Nucleotide-binding oligomerization domain-containing protein 1 (Homo sapiens); experiment: Induction of human NOD1 activity expressed in HEK293T cells assessed as NFKB activation at 5 mM

## N[C@H](CCC[C@H](NC(=O)CC[C@@H](N)C(=O)O)C(=O)O)C(=O)O
[1]
  Activity: Active

## CC(=O)N[C@@H]1[C@@H](OC(C)C(=O)N[C@@H](C)C(=O)N[C@H](CCC(=O)N[C@@H](CCC[C@@H](N)C(=O)O)C(=O)O)C(=O)O)[C@H](O)[C@@H](CO)O[C@H]1O (stereo partly specified)
[2]
  Activity: Active
[3]
  Activity: Active

## CC(=O)N[C@@H]1[C@@H](OC(C)C(=O)N[C@@H](C)C(=O)N[C@H](CCC(=O)N[C@@H](CCC[C@@H](N)C(=O)O)C(=O)O)C(=O)O)[C@H](O[C@@H]2O[C@H](CO)[C@@H](O)[C@H](O)[C@H]2NC(C)=O)[C@@H](CO)O[C@H]1O (stereo partly specified)
[2]
  Activity: Active

## CC(=O)N[C@H]1[C@H](O[C@H]2[C@H](OC(C)C(=O)N[C@@H](C)C(=O)N[C@H](CCC(=O)N[C@@H](CCC[C@@H](N)C(=O)O)C(=O)O)C(=O)O)[C@@H](NC(C)=O)[C@@H]3OC[C@H]2O3)O[C@H](CO)[C@@H](O)[C@@H]1O (stereo partly specified)
[1]
  Activity: Active

## C[C@H](N)C(=O)N[C@H](CCC(=O)N[C@@H](CCC[C@@H](N)C(=O)O)C(=O)O)C(=O)O
[1]
  Activity: Active
